Values after ≈ are worked out from the molar mass of the structure shown. Like-named read-outs stand apart in the source and are kept apart here.
Legend:
[1] = Toxicity test on HK-2 cells (Alma Blue); format: cell-based; conditions: human
Description: (§1) On the day of the experiment, when the HK-2 cells in the culture flask reached 80%-90% confluent, the culture medium was discarded, the cells were washed twice with Dulbecco's phosphate buffered saline (DPBS) and digested for 1 to 2 minutes with 3 mL trypsin (T150 cell culture flask), and immediately 9 ml complete medium (RPMI1640+10% FBS) were added to terminate the digestion. After termination, single cells suspension were formed by pipetting gently, which were centrifuged at 1000 […] for 5 minutes. The supernatant was discarded, and fresh complete medium were added, and the cells were pipetted evenly. The actual cell density was measured according to the cell counter and the cell suspension was adjusted to 2.5×10^5 cells/mL. 80 μL of cell suspension was drawn by a row pipettor and added into a 96-well black bottom plate (2×10^4 cell/well), and then incubated in a carbon dioxide incubator for 4.5 hours, which was defined as a cell plate.
(§2) • a. The compound mother liquor was prepared according to the following table, with complete medium as the solvent;
(§3) • b. 50 microliters of complete medium was added into columns 3-11 in the 96-v well plate; • c. 75 microliters of test compound (50 mg/mL) and positive control were added to the second column of the 96-v well plate; • d. 25 microliters of compound was drawn from the second column and added into the third column, blown and sucked a few times by a row pipettor, then 25 microliters of liquid was drawn from the third column and added to the fourth column, and subsequently subjected to a 3-fold series dilution until the 10th column. From column 2 to column 11, the compound concentration was 50, 16.67, 5.56, 1.85, 0.62, 0.21, 0.07, 0.02, 0.008, 0 mg/mL; • e. 20 μL compound solutions of various concentrations prepared were transferred by a row pipettor to the corresponding wells of the cell plate, which was defined as a testing plate. Culture of the Testing Plate:
(§4) All the plates were incubated in an incubator at 37° C., 5% CO2 for 43 hours.
(§5) After incubation, 10 microliters of Alma Blue was added to the testing plate. The testing plate was immediately incubated in an incubator at 37° C., 5% CO2 for 3 hours. Then the fluorescence value of each well of the testing plate was read by a microplate reader (wavelength Ex 540 nm/Em 585 nm). Then prism software was used to simulate the curve to calculate CC50 value.

HK-2 cells = test: Toxicity test on HK-2 cells (Alma Blue); format: cell-based; conditions: for Maximum inhibition rate: 43 hours incubation plus 3 hours Alma Blue
Description: as §1, §2, §3, §4, §5

[2] = system: auditory function in guinea pigs; test: Auditory safety: compound action potential (CAP) in guinea pigs; format: in vivo
Description: (§6) Healthy adult guinea pigs (150-250 g) were employed as the research objects, and were randomly divided into saline control group, gentamicin group, compound Plazomicin group and Compound 1 group, with 8 animals in each group. Subcutaneous administration is used, and the following assays were carried out during and after the administration for 14 consecutive days: • 1. To analyze the effects of different drugs on the auditory function of guinea pigs, the compound action potential (CAP) of animals was recorded on the 14th day (29th day, i.e., 4 weeks) after administration. The results obtained were analyzed and the changes of the threshold shift, amplitude, latency and other indicators among different treatment groups were compared. • 2. After the different groups of animals were processed and the auditory function data thereof were collected, the cochlea of the animals was taken out for fixation and staining. Surface preparation of basilar membrane of the cochlea on one side was performed to count the loss of hair cells so as to make a cochlea map, and the cochlea on the other side was decalcified and frozen sectioned. The density of spiral ganglion neurons was counted and compared among groups. Research Results: 1. Administration Method and Treatment
(§7) Gentamicin from Dalian Meilun Biotechnology Co., Ltd., and Plazomicin and Compound 1 from WuXi AppTec (WuHan) Co., Ltd. are used, the solution of which were prepared just before use each time by using saline for dissolution to the concentration of 50 mg/mL, and the injection dose was 100 mg/kg body weight. Method: subcutaneous injection, and confirmation of no liquid leakage after each injection.
The compound action potential (CAP) was tested and recorded when clicks and different frequencies of pure tones (1 KHz-32 kHz) were applied to each group of animals, and variations in amplitude and latency were mainly compared when clicks and medium and high frequency pure tones (16, 32 kHz) were applied. The magnitude of amplitude reflects the responsiveness of hair cells and auditory nerves. The larger the amplitude and the greater the slope of the I/O curve were, the better the responsiveness and the better the function were. In addition, the cochlea from apical turn to basal turn was responsive to sounds from low-frequency to high-frequency respectively, which is the frequency correspondence of the cochlear basilar membrane. The functional changes to different frequencies correspond to the different structural and functional changes of the cochlea fromapical turn to basal turn. The length of latency was also related to the function of the hair cells and auditory nerve response. Generally speaking, increasing of the threshold value when the cochlea was injured would inevitably lead to the extension of latency. […] In other words, the extension of latency reflected the decrease of response function. The previous ototoxicity of aminoglycoside antibiotics was mainly concentrated in the high-frequency area. In this study, the gentamicin group was consistent with previous results, as summarized below.

cochlear hair cells = test: Auditory safety: hair cell staining and counting on the basilar membrane of the cochlea; format: in vivo, guinea pigs
Description: as §6, §7
In order to compare the effects of different drugs on hair cells, hair cell staining and counting on the whole basilar membrane of the cochlea are performed. […] The Plazomicin group had 11.2-28.1% loss of outer hair cells in the high frequency (70-100% from the apical turn) and 16.7-24.2% loss of the outer hair cells at the beginning of the apical turn (10-20%). However, in the Compound 1 group, the loss of outer hair cells only occurred in the low-frequency region (from the top turn −40%), in which the loss rate of outer hair cells was about 2.5-11%, and the outer hair cells were relatively intact in the high frequency area (see FIG. 6 B).

spiral ganglion neurons = test: Auditory safety: density of spiral ganglion neurons; format: in vivo, guinea pigs
Description: as §6, §7
The cochlea of the guinea pig was defined as Turn 1, Turn 2, Turn 3, and Turn 4 from the basal to the apical turn. The spiral ganglion neurons (SGNs) were stained with TuJ on frozen sections, and the density thereof in a specific area were counted and compared between groups. […] Through the two-way ANOVA, there was a significant difference between the groups, F(3, 74)=35.43, p<0.0001 (see FIG. 7).

[3] = system: Klebsiella pneumoniae ATCC-BAA-1705; test: Drug efficacy in mice (mouse pneumonia model); format: in vivo; conditions: CD-1 mice, 10 mpk and 30 mpk subcutaneously 2 h and 10 h after infection, read at 24 h; FIG. 2
Description: 21 CD-1 mice were divided into 7 cages, 3 mice per cage, and were injected intraperitoneally with the immunosuppressant cyclophosphamide (150 mpk) on the 4th day.
On the first day, 7 cages of mice were injected intraperitoneally again with the immunosuppressant cyclophosphamide (100 mpk). The strain Kpn ATCC-BAA-1705 (Klebsiella pneumoniae ATCC-BAA-1705) was recovered on a MHA plate. The recovered colonies were picked and dissolved in saline to prepare Kpn ATCC-BAA-1705 bacterial solution with a concentration of 4.00E+08 CFU/mL for later use in mouse lung infection. The amount of bacterial solution infected in the lung of experimental mice was 50 μL/mouse, that is, the inoculation amount was 2.00E+07 CFU/mouse. At 2 h and 24 h infection, the lung tissue of the mice in control group was taken and placed in 5 mL saline, homogenized, and dotted on a plate with gradient dilution.
The specific administration of mice was as follows: • (1) 2 h after infection: At the end of 2 h after infection, the lung tissue of the mice in the first cage was taken and placed in 5 mL saline, homogenized, and dotted on a plate with gradient dilution, two duplications for each mouse. The amount of bacteria loaded in the lung tissue of the mouse was counted. Mice in the third and fourth cages were injected respectively with 30 mpk and 10 mpk compound Plazomicin subcutaneously, mice in the fifth and sixth cages were injected respectively with 30 mpk and 10 mpk compound subcutaneously, and mice in the seventh cage were injected with 100 mpk meropenem subcutaneously. • (2) 10 h after infection: Mice in the third and fourth cages were injected respectively with 30 mpk and 10 mpk plazomicin subcutaneously, mice in the fifth and sixth cages were injected respectively with 30 mpk and 10 mpk compound 1 subcutaneously, and mice in the seventh cage were injected with 100 mpk meropenem subcutaneously. At the end of 24 h infection, the lung tissue of the mice in the second to seventh cages was taken and placed in 5 mL saline, homogenized, and dotted on a plate with gradient dilution, two duplications for each mouse. The amount of bacteria carried in the lung tissue of the mouse was counted, and the experimental results were summarized and shown in FIG. 2.

[4] = 43 hours incubation plus 3 hours Alma Blue, read-out: CC50 of HK-2 cell
[5] = predicted from toxicity regression curve, read-out: CC50 of compound on cells predicted by software (Prism)
[6] = position 10 (% from the apical turn)
[7] = position 20 (% from the apical turn)
[8] = position 30 (% from the apical turn)
[9] = position 40 (% from the apical turn)
[10] = position 50 (% from the apical turn)
[11] = position 60 (% from the apical turn)
[12] = position 70 (% from the apical turn)
[13] = position 80 (% from the apical turn)
[14] = position 90 (% from the apical turn)
[15] = position 100 (% from the apical turn)
[16] = guinea pig, in vivo, sc, 100 mg/kg
[17] = guinea pig, in vivo, sc, 100 mg/kg, 29 day

CCN[C@@H]1C[C@H](N)[C@@H](O[C@H]2OC(CN)=CC[C@H]2N)[C@H](O)[C@H]1O[C@H]1OC[C@](C)(O)[C@H](NC)[C@H]1O [Netilmicin]
CC50 at 43 h [1, 4]: 10.6 mg/mL
CC50 at 43 h [1, 5]: 10.6 mg/mL (≈ 22.4 mM)
Maximum inhibition rate (HK-2 cells): 48.73%

Gentamicin
CAP amplitude at 16 kHz ([2]; guinea pigs, 100 mg/kg subcutaneous 14 days, 29th day, 16 kHz, 90 dB): 373.329±15.332 uv
CAP amplitude at 32 kHz ([2]; guinea pigs, 100 mg/kg subcutaneous 14 days, 29th day, 32 kHz, 90 dB): 31.272±5.137 uv
CAP amplitude under click ([2]; guinea pigs, 100 mg/kg subcutaneous 14 days, 29th day, click): consistent with the Control group
hearing damage (CAP amplitude) at 32 kHz ([2]; guinea pigs, 100 mg/kg subcutaneous for 14 consecutive days, 29th day, 32 kHz): 74.3%
loss of outer hair cells (cochlear hair cells; medium and high frequency region (60-100% from the apical turn)): 12-67.7%
loss of inner hair cells (cochlear hair cells; near the end of the basal turn (100% from the apical turn)): 9.3±4.1%
Damage of inner hair cells on Day 29 (cochlear hair cells; [6]): 0%
Damage of outer ear hair cells on Day 29 (cochlear hair cells; [6]): 9.5 ± 2.9%
Damage of inner hair cells on Day 29 (cochlear hair cells; [7]): 0%
Damage of outer ear hair cells on Day 29 (cochlear hair cells; [7]): 4.1 ± 0.7%
Damage of inner hair cells on Day 29 (cochlear hair cells; [8]): 0%
Damage of outer ear hair cells on Day 29 (cochlear hair cells; [8]): 2.7 ± 0.7%
Damage of inner hair cells on Day 29 (cochlear hair cells; [9]): 0%
Damage of outer ear hair cells on Day 29 (cochlear hair cells; [9]): 3.2 ± 1.0%
Damage of inner hair cells on Day 29 (cochlear hair cells; [10]): 0%
Damage of outer ear hair cells on Day 29 (cochlear hair cells; [10]): 3.2 ± 1.5%
Damage of inner hair cells on Day 29 (cochlear hair cells; [11]): 0.4 ± 0.4%
Damage of outer ear hair cells on Day 29 (cochlear hair cells; [11]): 12.6 ± 5.6%
Damage of inner hair cells on Day 29 (cochlear hair cells; [12]): 0.6 ± 0.6%
Damage of outer ear hair cells on Day 29 (cochlear hair cells; [12]): 13.6 ± 6.1%
Damage of inner hair cells on Day 29 (cochlear hair cells; [13]): 0.2 ± 0.2%
Damage of outer ear hair cells on Day 29 (cochlear hair cells; [13]): 12.0 ± 5.4%
Damage of inner hair cells on Day 29 (cochlear hair cells; [14]): 2.5 ± 1.7%
Damage of outer ear hair cells on Day 29 (cochlear hair cells; [14]): 42.8 ± 8.2%
Damage of inner hair cells on Day 29 (cochlear hair cells; [15]): 9.3 ± 4.1%
Damage of outer ear hair cells on Day 29 (cochlear hair cells; [15]): 67.7 ± 9.8%
Density of spiral ganglion neurons on Day 29 (spiral ganglion neurons; Turn 1 (basal turn)): 4.407 ± 0.517 n/10000 μm^2
Density of spiral ganglion neurons on Day 29 (spiral ganglion neurons; Turn 2): 5.540 ± 0.757 n/10000 μm^2
Density of spiral ganglion neurons on Day 29 (spiral ganglion neurons; Turn 3): 4.604 ± 0.598 n/10000 μm^2
Density of spiral ganglion neurons on Day 29 (spiral ganglion neurons; Turn 4 (apical turn)): 5.259 ± 0.280 n/10000 μm^2
damage to spiral ganglion neurons (SGN density vs Control group) (spiral ganglion neurons; guinea pigs, 100 mg/kg subcutaneous 14 days, FIG. 7): obvious damage in each turn

CN[C@@H]1[C@@H](O)[C@@H](O[C@@H]2[C@@H](O)[C@H](O[C@H]3OC(CNCCO)=CC[C@H]3N)[C@@H](N)C[C@H]2NC(=O)[C@@H](O)CCN)OC[C@]1(C)O [Plazomicin]
in vivo activity in lung infection model (bacteria in lung tissue) [3]: good in vivo activity
CAP amplitude under click [2, 16]: caused hearing damage
CAP amplitude at 16 kHz [2, 17]: 282.058±22.569 uv
CAP amplitude at 32 kHz [2, 17]: 62.982±7.561 uv
hearing damage (CAP amplitude) at 16 kHz [2, 17]: 25.9%
hearing damage (CAP amplitude) at 32 kHz [2, 17]: 48.2%
loss of inner hair cells (cochlear hair cells; guinea pig, in vivo, 29 day): 3.5±3.0%
damage to spiral ganglion neurons (SGN density vs Control group) (spiral ganglion neurons; [16]): decrease in SGN density near the apical turn
CC50 at 43 h [1, 4]: > 10 mg/mL
CC50 at 43 h [1, 5]: 19.5 mg/mL (≈ 33 mM)
toxicity to HK-2 cells compared with Netilmicin and Amikacin (HK-2 cells): significantly lower than that of Netilmicin and Amikacin
Maximum inhibition rate (HK-2 cells): 35.98%

NCC[C@H](O)C(=O)N[C@@H]1C[C@H](N)[C@@H](O[C@H]2O[C@H](CN)[C@@H](O)[C@H](O)[C@H]2O)[C@H](O)[C@H]1O[C@H]1O[C@H](CO)[C@@H](O)[C@H](N)[C@H]1O [Amikacin]
CC50 at 43 h [1, 4]: 8.16 mg/mL
CC50 at 43 h [1, 5]: 8.16 mg/mL (≈ 13.9 mM)
Maximum inhibition rate (HK-2 cells): 68.40%

From US12338263B2, “Antibacterial aminoglycoside derivatives” (priority 2019, dated 2025)
